These are literature values, as cited in patent US12150970B2, “Composition for treatment of topical dermatological bacterial skin conditions” (ALPHYN BIOLOGICS, INC., priority 2021, dated 2024).

This data set relates to cells. As to conditions: compounds evaluated by Chen.
Consider `Oc1cc(O)c2c(c1)O[C@H](c1ccc(O)c(O)c1)[C@@H](O)C2` [Catechin, catechin], for which the “effect on cell proliferation / healing (in words)” value is reported as “little effect”.

Consider `Oc1cc(O)c2c(c1)O[C@H](c1cc(O)c(O)c(O)c1)[C@@H](O)C2` [Gallocatechin, gallocatechin], for which the “effect on cell proliferation / healing (in words)” value is “slightly stimulating to cell proliferation”.

`COc1ccc2c(=O)oc3c(OC)cc(CCN(C)C)c4c(=O)oc1c2c34` [Taspine, taspine]: the “effect on cell proliferation / healing (in words)” value is given as “little healing effects”.

On to `COc1ccc([C@H]2Oc3c(OC)cc(CCCO)cc3[C@@H]2CO)cc1OC` [dimethylcedrusin], for which the “effect on cell proliferation / healing (in words)” value is on record as “little healing effects”.

Turning to epicatechin, the “effect on cell proliferation / healing (in words)” value is listed as “little effect”.

Take epigallocatechin: the “effect on cell proliferation / healing (in words)” value is reported as “slightly stimulating to cell proliferation”.
